Laboratory results taken from patent US12565522B2, “Micropeptide HMMW and application thereof” (NANJING ANJI BIOTECHNOLOGY CO., LTD., priority 2019, dated 2026).
No end group written: not given here.

Experiments:
Assay type in all cases: cell-based, human
Conditions in all cases: 24 h
[1] = tested on: A549 cells of lung cancer; assay: Matrigel transwell invasion test
Procedure: (§1) Dilute 10 mg/mL Matrigel with culture medium at 1:3, spread it on membranes of transwell cells and dry it in the air at room temperature. Use trypsin to digest and collect SCC4 cells of head and neck cancer, SW579 cells of thyroid cancer, A549 cells of lung cancer, TE13 cells of esophageal squamous cell carcinoma, MGC803 cells of stomach cancer, MDA-MB-231 cells of breast cancer, UOK262 cells of kidney cancer, and A431 cells of skin cancer of human, which were cultured to the logarithmic phase, wash with PBS twice and re-suspend with a blank culture medium. Adjust cell concentration to 1×10^5 cells/mL. Inoculate the cells to transwell cells, 100 μL per well, and meanwhile add micropeptides HMMW I to IX at different doses to every cell. Add 0.6 mL of complete medium containing 10% FBS to the transwell cells to stimulate cell invasion, and culture in 5% CO2 at 37 DEG C. for 24 h. Discard the medium in the wells, fix with 90% alcohol at room temperature for 30 min, stain with 0.1% crystal violet at room temperature for 10 min, rinse with clear water, gently wipe off the non-invaded cells in the upper layer with a cotton swab, observe under a microscope and select four fields of view to take pictures and count. Calculate the invasion inhibition rate (IIR) of the cells according to the following formula:
(§2) [formula] where Ntest is the number of invaded cells in the test groups (the groups at a dose of 1, 4 or 16 μM in the table), Ncontrol is the number of invaded cells in the blank control groups (the groups at a dose of 0 μM in the table). The test was repeated independently three times. Mean±SD was calculated based on the test results. Statistical t test was done. Value P was used to express statistical difference. The statistical significance of the results is a method for estimating how true the results are (the totality can be represented), *P<0.05 means significant difference, and **P<0.01 means very significant difference.

[2] = tested on: A431 cells of skin cancer; assay: Matrigel transwell invasion test
Procedure: as §1, §2

[3] = tested on: UOK262 cells of kidney cancer; assay: Matrigel transwell invasion test
Procedure: as §1, §2

[4] = tested on: MGC803 cells of stomach cancer; assay: Matrigel transwell invasion test
Procedure: as §1, §2

[5] = tested on: SCC4 cells of head and neck cancer; assay: Matrigel transwell invasion test
Procedure: as §1, §2

[6] = tested on: SW579 cells of thyroid cancer; assay: Matrigel transwell invasion test
Procedure: as §1, §2

[7] = tested on: TE13 cells of esophageal squamous cell carcinoma; assay: Matrigel transwell invasion test
Procedure: as §1, §2

[8] = tested on: MDA-MB-231 cells of breast cancer; assay: Matrigel transwell invasion test
Procedure: as §1, §2

[9] = tested on: A549 cells of lung cancer; assay: transwell migration test
Procedure: (§3) Inoculate SCC4 cells of head and neck cancer, SW579 cells of thyroid cancer, A549 cells of lung cancer, TE13 cells of esophageal squamous cell carcinoma, MGC803 cells of stomach cancer, MDA-MB-231 cells of breast cancer, UOK262 cells of kidney cancer, and A431 cells of skin cancer of human to transwell cells, 100 μL per well, and meanwhile add micropeptides HMMW I to IX at different doses to every cell. Add 0.6 mL of complete medium containing 10% FBS to the transwell cells to stimulate cell migration, and culture in 5% CO2 at 37 DEG C. for 24 h. Discard the medium in the wells, fix with 90% alcohol at room temperature for 30 min, stain with 0.1% crystal violet at room temperature for 10 min, rinse with clear water, gently wipe off the non-migrated cells in the upper layer with a cotton swab, observe under a microscope and select four fields of view to take pictures and count. Calculate the migration inhibition rate (MIR) of the cells according to the following formula: […]
(§4) The test was repeated independently three times. Mean±SD was calculated based on the test results. Statistical t test was done. Here, “the test was repeated independently three times” means that every dose of any type of cells was tested repeatedly three times, and then the above formula was used to calculate the number of migrated cells (Mean±SD). Value P was used to express statistical difference. The statistical significance of the results is a method for estimating how true the results are (the totality can be represented), *P<0.05 means significant difference, and **P<0.01 means very significant difference.

[10] = tested on: A431 cells of skin cancer; assay: transwell migration test
Procedure: as §3, §4

[11] = tested on: UOK262 cells of kidney cancer; assay: transwell migration test
Procedure: as §3, §4

[12] = tested on: MGC803 cells of stomach cancer; assay: transwell migration test
Procedure: as §3, §4

[13] = tested on: SCC4 cells of head and neck cancer; assay: transwell migration test
Procedure: as §3, §4

[14] = tested on: SW579 cells of thyroid cancer; assay: transwell migration test
Procedure: as §3, §4

[15] = tested on: TE13 cells of esophageal squamous cell carcinoma; assay: transwell migration test
Procedure: as §3, §4

[16] = tested on: MDA-MB-231 cells of breast cancer; assay: transwell migration test
Procedure: as §3, §4

## MGRAGVPGFSPRRSSVEAKMQSTSCSVRKSSTVTAWPAVVLLLSWGQRRGG-OH [HMMW-IX]
[1]; dose 1 μM
  invasion inhibition rate: 30.15%
[1]; dose 4 μM
  invasion inhibition rate: 60.32%
[1]; dose 16 μM
  invasion inhibition rate: 70.35%
[2]; dose 1 μM
  invasion inhibition rate: 34.83%
[2]; dose 4 μM
  invasion inhibition rate: 54.35%
[2]; dose 16 μM
  invasion inhibition rate: 74.16%
[3]; dose 1 μM
  invasion inhibition rate: 39.15%
[3]; dose 4 μM
  invasion inhibition rate: 59.28%
[3]; dose 16 μM
  invasion inhibition rate: 69.51%
[4]; dose 1 μM
  invasion inhibition rate: 26.42%
[4]; dose 4 μM
  invasion inhibition rate: 57.19%
[4]; dose 16 μM
  invasion inhibition rate: 68.35%
[5]; dose 1 μM
  invasion inhibition rate: 24.83%
[5]; dose 4 μM
  invasion inhibition rate: 48.82%
[5]; dose 16 μM
  invasion inhibition rate: 75.16%
[6]; dose 1 μM
  invasion inhibition rate: 25.21%
[6]; dose 4 μM
  invasion inhibition rate: 48.60%
[6]; dose 16 μM
  invasion inhibition rate: 62.48%
[7]; dose 1 μM
  invasion inhibition rate: 21.25%
[7]; dose 4 μM
  invasion inhibition rate: 40.39%
[7]; dose 16 μM
  invasion inhibition rate: 65.47%
[8]; dose 1 μM
  invasion inhibition rate: 27.83%
[8]; dose 4 μM
  invasion inhibition rate: 49.57%
[8]; dose 16 μM
  invasion inhibition rate: 75.43%
[9]; dose 1 μM
  migration inhibition rate: 36.00%
[9]; dose 4 μM
  migration inhibition rate: 52.95%
[9]; dose 16 μM
  migration inhibition rate: 71.46%
[10]; dose 1 μM
  migration inhibition rate: 33.19%
[10]; dose 4 μM
  migration inhibition rate: 55.17%
[10]; dose 16 μM
  migration inhibition rate: 73.22%
[11]; dose 1 μM
  migration inhibition rate: 17.39%
[11]; dose 4 μM
  migration inhibition rate: 43.38%
[11]; dose 16 μM
  migration inhibition rate: 70.47%
[12]; dose 1 μM
  migration inhibition rate: 25.61%
[12]; dose 4 μM
  migration inhibition rate: 51.45%
[12]; dose 16 μM
  migration inhibition rate: 74.80%
[13]; dose 1 μM
  migration inhibition rate: 18.81%
[13]; dose 4 μM
  migration inhibition rate: 43.97%
[13]; dose 16 μM
  migration inhibition rate: 74.00%
[14]; dose 1 μM
  migration inhibition rate: 17.81%
[14]; dose 4 μM
  migration inhibition rate: 50.03%
[14]; dose 16 μM
  migration inhibition rate: 71.98%
[15]; dose 1 μM
  migration inhibition rate: 21.76%
[15]; dose 4 μM
  migration inhibition rate: 40.29%
[15]; dose 16 μM
  migration inhibition rate: 65.32%
[16]; dose 1 μM
  migration inhibition rate: 26.06%
[16]; dose 4 μM
  migration inhibition rate: 52.34%
[16]; dose 16 μM
  migration inhibition rate: 73.38%

## MERAGVPGFSPRRSSVEAKMQSTSCSVRKSSTVTAWPAVVLLLSWGQRRGE-OH [HMMW-VIII]
[1]; dose 1 μM
  invasion inhibition rate: 34.03%
[1]; dose 4 μM
  invasion inhibition rate: 55.20%
[1]; dose 16 μM
  invasion inhibition rate: 68.03%
[2]; dose 1 μM
  invasion inhibition rate: 34.50%
[2]; dose 4 μM
  invasion inhibition rate: 55.11%
[2]; dose 16 μM
  invasion inhibition rate: 69.43%
[3]; dose 1 μM
  invasion inhibition rate: 35.27%
[3]; dose 4 μM
  invasion inhibition rate: 54.14%
[3]; dose 16 μM
  invasion inhibition rate: 68.21%
[4]; dose 1 μM
  invasion inhibition rate: 26.01%
[4]; dose 4 μM
  invasion inhibition rate: 57.18%
[4]; dose 16 μM
  invasion inhibition rate: 70.60%
[5]; dose 1 μM
  invasion inhibition rate: 23.71%
[5]; dose 4 μM
  invasion inhibition rate: 49.14%
[5]; dose 16 μM
  invasion inhibition rate: 76.64%
[6]; dose 1 μM
  invasion inhibition rate: 19.61%
[6]; dose 4 μM
  invasion inhibition rate: 43.56%
[6]; dose 16 μM
  invasion inhibition rate: 64.79%
[7]; dose 1 μM
  invasion inhibition rate: 24.21%
[7]; dose 4 μM
  invasion inhibition rate: 42.31%
[7]; dose 16 μM
  invasion inhibition rate: 61.51%
[8]; dose 1 μM
  invasion inhibition rate: 27.90%
[8]; dose 4 μM
  invasion inhibition rate: 45.81%
[8]; dose 16 μM
  invasion inhibition rate: 64.26%
[9]; dose 1 μM
  migration inhibition rate: 32.06%
[9]; dose 4 μM
  migration inhibition rate: 51.90%
[9]; dose 16 μM
  migration inhibition rate: 73.40%
[10]; dose 1 μM
  migration inhibition rate: 33.10%
[10]; dose 4 μM
  migration inhibition rate: 53.37%
[10]; dose 16 μM
  migration inhibition rate: 71.20%
[11]; dose 1 μM
  migration inhibition rate: 18.29%
[11]; dose 4 μM
  migration inhibition rate: 43.48%
[11]; dose 16 μM
  migration inhibition rate: 71.45%
[12]; dose 1 μM
  migration inhibition rate: 24.60%
[12]; dose 4 μM
  migration inhibition rate: 53.43%
[12]; dose 16 μM
  migration inhibition rate: 73.81%
[13]; dose 1 μM
  migration inhibition rate: 17.80%
[13]; dose 4 μM
  migration inhibition rate: 42.92%
[13]; dose 16 μM
  migration inhibition rate: 72.35%
[14]; dose 1 μM
  migration inhibition rate: 18.81%
[14]; dose 4 μM
  migration inhibition rate: 52.05%
[14]; dose 16 μM
  migration inhibition rate: 70.90%
[15]; dose 1 μM
  migration inhibition rate: 23.73%
[15]; dose 4 μM
  migration inhibition rate: 42.23%
[15]; dose 16 μM
  migration inhibition rate: 63.31%
[16]; dose 1 μM
  migration inhibition rate: 26.14%
[16]; dose 4 μM
  migration inhibition rate: 50.24%
[16]; dose 16 μM
  migration inhibition rate: 73.32%

## MERAGVPGFSPRRSSVEAKMQSTSCSVRKSSTVTAWPAVVLLLSWGKDDEE-OH [HMMW-IV]
[1]; dose 1 μM
  invasion inhibition rate: 34.22%
[1]; dose 4 μM
  invasion inhibition rate: 56.11%
[1]; dose 16 μM
  invasion inhibition rate: 65.24%
[2]; dose 1 μM
  invasion inhibition rate: 36.25%
[2]; dose 4 μM
  invasion inhibition rate: 57.19%
[2]; dose 16 μM
  invasion inhibition rate: 71.36%
[3]; dose 1 μM
  invasion inhibition rate: 38.40%
[3]; dose 4 μM
  invasion inhibition rate: 58.36%
[3]; dose 16 μM
  invasion inhibition rate: 67.62%
[4]; dose 1 μM
  invasion inhibition rate: 23.50%
[4]; dose 4 μM
  invasion inhibition rate: 54.21%
[4]; dose 16 μM
  invasion inhibition rate: 63.49%
[5]; dose 1 μM
  invasion inhibition rate: 22.79%
[5]; dose 4 μM
  invasion inhibition rate: 47.34%
[5]; dose 16 μM
  invasion inhibition rate: 74.40%
[6]; dose 1 μM
  invasion inhibition rate: 23.10%
[6]; dose 4 μM
  invasion inhibition rate: 46.71%
[6]; dose 16 μM
  invasion inhibition rate: 67.72%
[7]; dose 1 μM
  invasion inhibition rate: 22.40%
[7]; dose 4 μM
  invasion inhibition rate: 42.42%
[7]; dose 16 μM
  invasion inhibition rate: 67.51%
[8]; dose 1 μM
  invasion inhibition rate: 24.91%
[8]; dose 4 μM
  invasion inhibition rate: 46.73%
[8]; dose 16 μM
  invasion inhibition rate: 71.64%
[9]; dose 1 μM
  migration inhibition rate: 33.00%
[9]; dose 4 μM
  migration inhibition rate: 52.91%
[9]; dose 16 μM
  migration inhibition rate: 71.46%
[10]; dose 1 μM
  migration inhibition rate: 32.19%
[10]; dose 4 μM
  migration inhibition rate: 54.17%
[10]; dose 16 μM
  migration inhibition rate: 71.24%
[11]; dose 1 μM
  migration inhibition rate: 16.32%
[11]; dose 4 μM
  migration inhibition rate: 41.38%
[11]; dose 16 μM
  migration inhibition rate: 70.47%
[12]; dose 1 μM
  migration inhibition rate: 25.60%
[12]; dose 4 μM
  migration inhibition rate: 52.45%
[12]; dose 16 μM
  migration inhibition rate: 74.80%
[13]; dose 1 μM
  migration inhibition rate: 16.84%
[13]; dose 4 μM
  migration inhibition rate: 43.91%
[13]; dose 16 μM
  migration inhibition rate: 75.04%
[14]; dose 1 μM
  migration inhibition rate: 18.81%
[14]; dose 4 μM
  migration inhibition rate: 50.03%
[14]; dose 16 μM
  migration inhibition rate: 71.91%
[15]; dose 1 μM
  migration inhibition rate: 22.76%
[15]; dose 4 μM
  migration inhibition rate: 41.29%
[15]; dose 16 μM
  migration inhibition rate: 65.32%
[16]; dose 1 μM
  migration inhibition rate: 29.06%
[16]; dose 4 μM
  migration inhibition rate: 51.34%
[16]; dose 16 μM
  migration inhibition rate: 73.38%
